{
  "source": "patent US4333873A",
  "about": "“Pharmacologically active peptides” (Eli Lilly and Company, priority 1981, dated 1982)",
  "tested_on": "mouse",
  "test": "mouse hot plate test (analgesic activity)",
  "assay_type": "in vivo",
  "conditions": "hot plate 52° C., 15 minutes after administration, latency to jump",
  "protocol": "In this test, a mouse is placed inside an upright acrylic cylinder comprising, as its base, a hot plate surface which is maintained at 52° C. The mouse is given, orally or by subcutaneous injection, a predetermined amount of test compound dissolved or suspended in a suitable carrier, and, 15 minutes after administration of the test compound, the mouse is placed on the hot plate surface. The latency in seconds until the mouse jumps from the hot plate surface is measure. […] This must occur in a dose range which produces no motor incoordination or incapacitation. The following Table records the ED50 results obtained from this test.",
  "note": "Where a name gives a salt, the structure may show the parent alone.",
  "data": [
    {"compound": "C[C@@H](NC(=O)[C@@H](N)Cc1ccc(O)cc1)C(=O)NCC(=O)N(CC1CC1)[C@@H](Cc1ccccc1)C(N)=O", "note": "[Example 2, L-Tyrosyl-D-alanyl-glycyl-L-(N^α -cyclopropylmethyl)phenylalanine Amide, Acetate Salt]", "values": [
      {"measurement": "Analgesic Activity, Hot Plate Test ED50, mg./kg. subcutaneous", "value": 0.012, "unit": "mg/kg"}
    ]},
    {"compound": "C=CCN(C(=O)CNC(=O)[C@@H](C)NC(=O)[C@@H](N)Cc1ccc(O)cc1)[C@@H](Cc1ccccc1)C(N)=O", "note": "[Example 1, L-Tyrosyl-D-alanyl-glycyl-L-(N^α -allyl)phenylalanine Amide, Acetate Salt]", "values": [
      {"measurement": "Analgesic Activity, Hot Plate Test ED50, mg./kg. subcutaneous", "value": 0.01, "unit": "mg/kg"}
    ]}
  ]
}
